In brackets after ≈: the same amount, converted by molar mass. Activity calls are given as the source filed them. The calls are words filed in the database; no cut-off is given here.
Key:
[1] = tested on: Staphylococcus aureus; experiment: Antibacterial activity against methicillin-susceptible Staphylococcus aureus ATCC 25923 after 24 hrs by two fold dilution method; assay type: functional; details: ATCC 25923, 24 h
[2] = tested on: Candida albicans; experiment: Antifungal activity against Candida albicans CMAH 0507 after 48 to 72 hrs by broth microdilution method; assay type: functional
[3] = tested on: Klebsiella aerogenes; experiment: Antibacterial activity against Enterobacter aerogenes CMCC(B) 45103 upto 128 ug/mL after 24 hrs by two fold dilution method; assay type: functional, organism-based
[4] = tested on: Bacillus subtilis; experiment: Antimicrobial activity against Bacillus subtilis after 24 hrs by two fold dilution method; assay type: functional
[5] = tested on: Proteus vulgaris; experiment: Antimicrobial activity against Proteus vulgaris CMCC(B) 49001 upto 128 ug/mL after 24 hrs by two fold dilution method; assay type: functional, organism-based
[6] = tested on: Aspergillus sp.; experiment: Antifungal activity against Aspergillus sp. after 48 to 72 hrs by broth microdilution method; assay type: functional; details: Aspergillus sp.
[7] = tested on: Candida albicans; experiment: Antifungal activity against fluconazole-resistant Candida albicans CMAH 0520 after 48 to 72 hrs by broth microdilution method; assay type: functional
[8] = tested on: Candida albicans; experiment: Antifungal activity against Candida albicans CMAH 0511 after 48 to 72 hrs by broth microdilution method; assay type: functional
[9] = tested on: Staphylococcus aureus; experiment: Antibacterial activity against methicillin-resistant Staphylococcus aureus CMAH 0430 upto 128 ug/mL after 24 hrs by two fold dilution method; assay type: functional, organism-based
[10] = tested on: Escherichia coli; experiment: Antimicrobial activity against Escherichia coli ATCC 25922 upto 128 ug/mL after 24 hrs by two fold dilution method; assay type: functional, organism-based
[11] = tested on: Candida albicans; experiment: Antifungal activity against Candida albicans CMAM 0592 upto 128 ug/mL after 48 to 72 hrs by broth microdilution method; assay type: functional, organism-based
[12] = tested on: Candida albicans; experiment: Antifungal activity against Candida albicans CMAM 0577 upto 128 ug/mL after 48 to 72 hrs by broth microdilution method; assay type: functional, organism-based
[13] = tested on: Candida albicans; experiment: Antifungal activity against Candida albicans CMAM 0594 upto 128 ug/mL after 48 to 72 hrs by broth microdilution method; assay type: functional, organism-based
[14] = tested on: Candida albicans; experiment: Antifungal activity against Candida albicans CMAH 0572 upto 128 ug/mL after 48 to 72 hrs by broth microdilution method; assay type: functional, organism-based
[15] = tested on: Saccharomyces cerevisiae; experiment: Antimicrobial activity against Saccharomyces cerevisiae upto 128 ug/mL after 48 to 72 hrs by broth microdilution method; assay type: functional, organism-based
[16] = tested on: Staphylococcus aureus; experiment: Antibacterial activity against methicillin-resistant Staphylococcus aureus CMAH 0504 upto 128 ug/mL by two fold dilution method; assay type: functional, organism-based
[17] = tested on: Cryptococcus neoformans; experiment: Antifungal activity against Cryptococcus neoformans ATCC 90112 upto 128 ug/mL after 48 to 72 hrs by broth microdilution method; assay type: functional, organism-based
[18] = tested on: Candida albicans; experiment: Antifungal activity against fluconazole-resistant Candida albicans CMAM 0597 upto 128 ug/mL after 48 to 72 hrs by broth microdilution method; assay type: functional, organism-based
[19] = tested on: Micrococcus luteus; experiment: Antimicrobial activity against Micrococcus luteus CMCC(B) 28001 upto 128 ug/mL after 24 hrs by two fold dilution method; assay type: functional, organism-based
[20] = tested on: Candida albicans; experiment: Antifungal activity against Candida albicans CMAH 0501 after 48 to 72 hrs by broth microdilution method; assay type: functional
[21] = tested on: Staphylococcus aureus; experiment: Antibacterial activity against methicillin-resistant Staphylococcus aureus CMAH 0515 upto 128 ug/mL after 24 hrs by two fold dilution method; assay type: functional, organism-based
[22] = tested on: Candida albicans; experiment: Antifungal activity against Candida albicans CMAH 0503 after 48 to 72 hrs by broth microdilution method; assay type: functional
[23] = tested on: Candida albicans; experiment: Antifungal activity against Candida albicans ATCC 10231 after 48 to 72 hrs by broth microdilution method; assay type: functional
[24] = tested on: Pseudomonas aeruginosa; experiment: Antimicrobial activity against Pseudomonas aeruginosa ATCC 27853 upto 128 ug/mL after 24 hrs by two fold dilution method; assay type: functional, organism-based
[25] = tested on: Rhodotorula glutinis; experiment: Antimicrobial activity against Rhodotorula glutinis SYM 2209 after 48 to 72 hrs by broth microdilution method; assay type: functional
[26] = tested on: Candida albicans; experiment: Antifungal activity against Candida albicans CMAH 0527 after 48 to 72 hrs by broth microdilution method; assay type: functional

**Q.** `COC(=O)[C@H](Cc1c[nH]c2ccccc12)NC(=O)c1cccc(C(=O)N[C@@H](Cc2c[nH]c3ccccc23)C(=O)OC)n1` was tested. Which MIC [1] did it give?
**A.** 64 µg/mL (≈ 113 µM)

**Q.** What about the MIC [2] of the same compound?
**A.** 64 µg/mL (≈ 113 µM)

**Q.** What about the Activity [3] of the same compound?
**A.** inactive

**Q.** What about the MBC [4] of the same compound?
**A.** > 128 µg/mL

**Q.** And the MIC [4]?
**A.** 32 µg/mL (≈ 56.4 µM)

**Q.** And the Activity [5]?
**A.** inactive

**Q.** And the MIC50 [6]?
**A.** > 128 µg/mL

**Q.** And the MIC90 [6]?
**A.** > 128 µg/mL

**Q.** And the MIC [7]?
**A.** 64 µg/mL (≈ 113 µM)

**Q.** And the MBC [8]?
**A.** 128 µg/mL (≈ 226 µM)

**Q.** What about the MIC [8] of the same compound?
**A.** 32 µg/mL (≈ 56.4 µM)

**Q.** What about the Activity [9] of the same compound?
**A.** inactive

**Q.** And the Activity [10]?
**A.** inactive

**Q.** And the Activity [11]?
**A.** inactive

**Q.** And the Activity [12]?
**A.** inactive

**Q.** And the Activity [13]?
**A.** inactive

**Q.** And the Activity [14]?
**A.** inactive

**Q.** What about the Activity [15] of the same compound?
**A.** inactive

**Q.** What about the Activity [16] of the same compound?
**A.** inactive

**Q.** And the Activity [17]?
**A.** inactive

**Q.** And the Activity [18]?
**A.** inactive

**Q.** What about the Activity [19] of the same compound?
**A.** inactive

**Q.** And the MFC [20]?
**A.** 128 µg/mL (≈ 226 µM)

**Q.** And the MIC [20]?
**A.** 32 µg/mL (≈ 56.4 µM)

**Q.** And the Activity [21]?
**A.** inactive

**Q.** And the MFC [22]?
**A.** 128 µg/mL (≈ 226 µM)

**Q.** What about the MIC [22] of the same compound?
**A.** 32 µg/mL (≈ 56.4 µM)

**Q.** And the MFC [23]?
**A.** 128 µg/mL (≈ 226 µM)

**Q.** What about the MIC [23] of the same compound?
**A.** 32 µg/mL (≈ 56.4 µM)

**Q.** And the Activity [24]?
**A.** inactive

**Q.** What about the MFC [25] of the same compound?
**A.** 128 µg/mL (≈ 226 µM)

**Q.** What about the MIC [25] of the same compound?
**A.** 32 µg/mL (≈ 56.4 µM)

**Q.** What about the MBC [26] of the same compound?
**A.** 128 µg/mL (≈ 226 µM)

**Q.** And the MIC [26]?
**A.** 32 µg/mL (≈ 56.4 µM)

From ChEMBL document CHEMBL1147026, “Synthesis of pseudopeptides based L-tryptophan as a potential antimicrobial agent” (Bioorg Med Chem Lett, 2007)
